Results as given in a melting point compilation (Tetko et al.; mined from patent text by program, amines drawn as free bases though some values may be those of a salt).

Compound	melting point [°C]
Cc1cc(-c2cc(C(F)(F)F)n3ncc(C(=O)Nc4cc(S(=O)(=O)NC(C)(C)CO)sc4Cl)c3n2)ccc1C(F)(F)F	207
CC(=O)c1ccccc1C(O)=S	127 to 129
Cc1cc2cc(Nc3ncnc4cc(-c5ccccc5)sc34)ccc2[nH]1	218 to 220
O=C1CCOc2cc(OCc3ccccc3)c(F)cc21	155 to 156
O=c1[nH]ncc2[nH]c(-c3ccc(OC(F)F)c(OC4CC4)c3)cc12	287 to 292
CC1=CC(c2cccc(Cl)c2)C=C(CN2C(=O)c3ccccc3C2=O)N1 (centres undefined)	128 to 130
N#CCc1ccc(N)c2[nH]ncc12	164 to 165
C(=C\c1nc(COc2ccc(CCCCn3ccnn3)cc2)co1)/c1ccccc1	125 to 126
C1=C(c2cc3ccccc3[nH]2)Cc2ccccc21	273 to 274
CS(=O)(=O)c1ccc(C2=C(c3ccc(-c4cccs4)cc3)C(=O)OC2)cc1	198 to 201
O=c1c2ccc(Cl)cc2[nH]c2c(O)nn(-c3ccc(OC(F)(F)F)cc3)c(=O)c12	320 to 322
NS(=O)(=O)c1cc(C=O)co1	281 to 284
Clc1ccc(-c2nc(-n3cncn3)oc2CCC2=NCCO2)cc1	132 to 133
O=C1NC(C(=O)O)CCCCCCCCCCC1CS (centres undefined)	170 to 172
O=c1c2c(Cc3ccccc3OC(F)(F)F)n[nH]c2c2cccnc2n1-c1cccc(C(F)(F)F)c1	247 to 252
CCCCCCCCCCCCc1ccc2nc3c(c(Cl)c2c1)CCCC3	36 to 38
O=C1c2c(Cl)cccc2-n2cnc(C#Cc3ccccc3)c2[C@@H]2CCCN12	241 to 242
CCN(CC)CCOc1ccc2cc3ccc(OCCN(CC)CC)c([N+](=O)[O-])c3nc2c1[N+](=O)[O-]	138 to 140
O=C(NC1CN2CCC1CC2)c1ccccc1Cc1ccccc1 (racemic)	187 to 188
CCCSc1nc(-c2ccc(C#N)cc2)cn1-c1ccc(C#N)cc1	117 to 122
COC(=O)c1ccc(Cc2cn(C/C=C/c3ccc4ccc(Cl)cc4n3)c3ccc([N+](=O)[O-])cc23)c(OC)c1	158 to 160
Cc1c(-c2ccncc2)[nH]c(-c2ccncc2)c1C=O	278 to 280
ON=C(c1ccc2c(c1)OCO2)C(F)(F)F	96
Cc1cc2c(cc1Br)-c1cc(C)c(Br)c(C)c1OP2(=O)O	240
CCCn1c(=O)c(=O)[nH]c2cc([N+](=O)[O-])c(-n3ccc(=O)c([N+](=O)[O-])c3)cc21	> 300
COc1cc2c(Nc3ccc(Cl)cc3F)ncnc2cc1OCc1ccnc(C)c1	221 to 224
O=c1c2c(Cc3ccccc3)n[nH]c2c2cccnc2n1-c1cccc(C(F)(F)F)c1	226 to 228

Compound	melting point [°C]
Cc1c(O)cccc1OCc1ccccc1	58 to 59
O=C1C(=CN2CCOCC2)c2ccccc2N1c1cccc(Cl)c1	130 to 132
COCc1ccc(Oc2cc(OC3CCOCC3)c3[nH]c(C4=NCC(CC(C)(C)O)S4)cc3c2)cn1 (centres undefined)	108 to 110
O=c1c2ccccc2ncn1CCN1CCC(Nc2nc3ccccc3n2Cc2ccc(F)cc2)CC1	191
S=c1c2c(c3cccnc3n1-c1ccccc1)OCC2	242 to 244
CC(NC(Nc1cccc(C#N)c1)=C(C#N)S(=O)(=O)c1ccc(Cl)cc1)C(C)(C)C (centres undefined)	80 to 82
Clc1ccc(C2(Cn3ccnc3)OCC(CCc3ccccc3)O2)c(Cl)c1 (centres undefined)	118
COc1ccc(C(=O)Nc2ccccc2)cc1NC(=S)Nc1ccc(F)cc1	182 to 183
OCc1cnoc1-c1ccc(F)cc1	41 to 42
O=C(O)C=C1SC(Nc2c(Cl)cccc2Cl)=NC1=O	> 230
C=C(CN(C)C)C(O)c1ncc2c(c1O)COC2c1cccc(Cl)c1Cl (centres undefined)	180 to 184
Cc1ncccc1OCCO	75 to 80
CC(=O)Nc1nc(C)c(S(=O)(=O)NN2CCN(C)CC2)s1	245
O=C(c1ccccc1O)N1CCc2cc(S(=O)(=O)N3CC(c4ccccc4)NC3=O)ccc21 (centres undefined)	221
CC(C)(Oc1ccc(Cl)cc1)C(O)(Cn1cncn1)c1ccc(Cl)cc1 (centres undefined)	135
N#CN1Cc2ccccc2-c2ccccc2C1	121 to 124
ClCCCCOc1ccc(C2c3ccc(OCc4ccccc4)cc3OCC2c2ccccc2)cc1 (centres undefined)	94 to 97.5
Cc1nc(-c2cc3cccc(OC[C@@H](O)CN4CCC(c5ccc6ccccc6c5)CC4)c3o2)no1	169 to 170
O=P1(c2ccc(Oc3ccccc3)cc2)c2ccccc2CN1c1ccccc1 (centres undefined)	207 to 208
CC(C)c1cccc(C(C)C)c1NC(=O)NCC1CCc2ccccc21 (centres undefined)	183 to 185
COc1cc(NC(=O)C(C#N)=CNc2ccsc2)c(Cl)cc1Cl	> 250
CN(C)c1nc2c(c(=O)[nH]1)CC(S(=O)(=O)c1ccccc1)CC2 (centres undefined)	249
O=C(c1ccccc1)c1c(O)c(=O)ccn1CCO	195 to 200
COC(=O)NC(=S)Nc1cc(C(=O)c2ccccc2)ccc1NCc1ccccc1	75 to 79
CN1C(=O)c2cccnc2Nc2ncccc21	230 to 232
CCOP(=O)(/C=C/c1cn(-c2ccccc2)nc1OCc1ccc(OCc2nc(-c3ccccc3)oc2C)cc1)OCC	109 to 110
CCOC(=O)C1=Cc2cc(Cl)cc(-c3ccccc3)c2OC1C(F)(F)F (centres undefined)	196 to 198

Further lines, results first:

melting point [°C]	Compound
92 to 94	CCOC(=O)C(C)(Sc1nc2ccc(OCC)cc2s1)c1ccccc1 (centres undefined)
162 to 165	O=C(Nc1ccc([N+](=O)[O-])cc1)C(=O)N1CCC(Cc2ccccc2)CC1
132 to 134	CC1(C)CC2(CC(C)(C)N1)NC(=O)N(CC(O)COC(=O)CCCCC(=O)OCC(O)CN1C(=O)NC3(CC(C)(C)NC(C)(C)C3)C1=O)C2=O (centres undefined)
113 to 115	CC(=O)c1nc(C)c[nH]1
96 to 99	CCOC(=O)C(=O)Nc1ncccn1
92 to 93	CCN(CC)CC(O)Cn1ccnc1[N+](=O)[O-] (centres undefined)
86 to 87	C=C(C)OC(=O)N1C(=O)[C@H](C)Nc2nc(Cl)ccc21
190 to 192	CCc1ccccc1Sc1c(O)cc(-c2ccccc2)oc1=O
138 to 139	CCOC(=O)c1c(NCCc2ccccc2)n[nH]c1C
236 to 238	COC(=O)C1=C(C)NC2=C(C1c1cccc([N+](=O)[O-])c1)S(=O)(=O)CCC2 (centres undefined)
66 to 68	CC(C)(C)OC(=O)N1CCN(C(=O)C(F)(F)F)CC1
94 to 95	CCCCCS(=O)(=O)NC(=O)CCc1ccc(OC(C)C)cc1Oc1ncc(C(F)(F)F)cc1Cl
221 to 223	CCOC(=O)c1csc(/C=C/c2cccc(NC(=O)Cc3ccccc3C(=O)O)c2)n1
90 to 91	CCCCCCCCCc1ccc(C(=O)CC(=O)C(=O)O)cc1
124 to 125	CC(=O)OCCn1c(C)c(C(=O)Nc2ccc(OCC(C)(C)C)c(C#N)c2)c2cc(F)ccc21
127	CCCC(CCC)C(=O)NC(=O)CN
132 to 135	CC(C)C[C@H](CC(N)=O)CC(=O)O
138	CC(CNS(=O)(=O)C(C)C)c1ccc(NC(=O)CCl)cc1 (centres undefined)
159 to 164	Cc1c(F)cc(C(=O)NCCC(C)C)cc1-c1ccc(C(=O)NCC(C)(C)C)cc1C(=O)Nc1nccs1
135	O=[N+]([O-])c1cc(O)c(OCCOCCO)cc1[N+](=O)[O-]
191 to 194	CCNC1([C@@H]2CCN(c3ccc4c(=O)c(C(=O)O)cn([C@@H]5C[C@@H]5F)c4c3C)C2)CC1
133 to 135	O=C(CCCCN1CCCC1)NNC(=O)N1Cc2ccccc2Oc2ccc(Cl)cc21
105 to 107	CC(C)(C)[C@H]1CC[C@H](CCC(=O)O)CC1
120 to 122	CN(C)C=CC(=O)c1cccc(N(C)C(=O)C2CC2)c1
125	O=C(O)CCNC(=O)C(=Cc1ccc(-c2ccccc2)cc1)CS
